Experimental data: US20050054696A1, “Indole compounds and medicinal use thereof” (priority 2001, published 2005)

Biological target: T1, recombinant human liver glycogen phosphorylase (HLGPa) (Homo sapiens, UniProt P06737)
T1 construct: made in house; host or cells: Sf9 insect cells (unpurified cell lysate used as enzyme solution)
T1 sequence (P06737 1-847): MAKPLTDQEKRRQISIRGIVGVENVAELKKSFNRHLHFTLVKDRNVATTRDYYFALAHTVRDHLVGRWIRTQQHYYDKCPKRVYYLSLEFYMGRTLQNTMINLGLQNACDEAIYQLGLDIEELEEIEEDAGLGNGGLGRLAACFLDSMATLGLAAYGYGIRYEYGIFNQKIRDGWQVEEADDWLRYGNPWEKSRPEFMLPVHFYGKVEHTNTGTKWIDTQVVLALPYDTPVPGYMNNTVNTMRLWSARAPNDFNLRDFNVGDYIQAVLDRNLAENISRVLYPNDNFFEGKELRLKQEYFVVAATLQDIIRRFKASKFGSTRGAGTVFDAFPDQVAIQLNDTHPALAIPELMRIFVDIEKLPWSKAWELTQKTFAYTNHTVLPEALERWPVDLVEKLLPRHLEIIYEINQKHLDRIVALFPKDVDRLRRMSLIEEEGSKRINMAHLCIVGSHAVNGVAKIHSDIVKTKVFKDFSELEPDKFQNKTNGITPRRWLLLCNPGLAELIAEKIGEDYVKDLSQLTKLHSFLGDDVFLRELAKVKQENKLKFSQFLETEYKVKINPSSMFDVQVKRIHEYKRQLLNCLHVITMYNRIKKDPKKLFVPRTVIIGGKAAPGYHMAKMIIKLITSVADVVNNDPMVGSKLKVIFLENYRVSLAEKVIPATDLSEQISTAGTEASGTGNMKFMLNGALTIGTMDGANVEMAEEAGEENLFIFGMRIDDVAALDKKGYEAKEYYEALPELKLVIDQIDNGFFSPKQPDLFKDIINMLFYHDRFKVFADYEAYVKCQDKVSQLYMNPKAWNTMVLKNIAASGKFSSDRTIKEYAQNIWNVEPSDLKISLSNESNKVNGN
Assay: Measurement of liver glycogen phosphorylase activity (enzyme inhibitory activity against HLGPa)
Format: biochemical
Conditions: Sf9 cell lysate expressing recombinant enzyme; reverse reaction (glycogen synthesis from G1-P), phosphate by malachite green, 60 min room temperature
How it was run: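 Activity was run in the reverse, glycogen-synthesis direction, using Sf9 lysate expressing recombinant human liver glycogen phosphorylase (enzyme solution 80 μg/mL protein, pH 7.0). Substrate solution was Tris pH 7.2 with 1.25 mM glucose-1-phosphate, 2.5 mg/ml glycogen and 7.5 mM glucose, reacted 60 min at room temperature. Released phosphate was measured by malachite green A650, with % inhibition taken against DMSO control and no-enzyme blank.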

`COc1ccc2[nH]c(=O)n(NC(=O)c3cc4cc(C)ccc4[nH]3)c(=O)c2c1` [Example 2-27, 5-methyl-1H-indole-2-carboxylic acid (1,2,3,4-tetrahydro-6-methoxy-2,4-dioxoquinazolin-3-yl)amide] and `Cc1ccc2[nH]c(C(=O)Nn3c(=O)[nH]c4cc(F)c(F)cc4c3=O)cc2c1` [Example 2-26, 5-methyl-1H-indole-2-carboxylic acid (6,7-difluoro-1,2,3,4-tetrahydro-2,4-dioxoquinazolin-3-yl)amide] are within 1.5-fold of each other in IC50: 300 nM for the first, 210 nM for the second.

`O=C(NNC(=O)c1cc2cc(F)ccc2[nH]1)c1ccccc1` [Example 1-9, benzoic acid 2-(5-fluoro-1H-indole-2-carbonyl)hydrazide] and `Cc1ccc2[nH]c(C(=O)NNC(=O)c3ccccc3)cc2c1` [Example 1-33, benzoic acid 2-(5-methyl-1H-indole-2-carbonyl)hydrazide] are within 1.5-fold of each other in IC50: 73 nM for the first, 86 nM for the second.

Going from `O=C(NNC(=O)c1cc2cc(OCc3ccccc3)ccc2[nH]1)c1ccccc1` [Example 1-123, benzoic acid 2-(5-benzyloxy-1H-indole-2-carbonyl)hydrazide] to `O=C(Nc1ccccc1C(=O)NNC(=O)c1cc2cc(Cl)ccc2[nH]1)OCc1ccccc1` [Example 1-110, benzyl (2-(2-(5-chloro-1H-indole-2-carbonyl)hydrazinocarbonyl)phenyl)carbamate], the IC50 falls from over 100 nM to 35 nM.

`Nc1ccccc1C(=O)NNC(=O)c1cc2cc(F)ccc2[nH]1` [Example 1-38, 2-aminobenzoic acid 2-(5-fluoro-1H-indole-2-carbonyl)hydrazide] and `CC(C)c1ccc2[nH]c(C(=O)NNC(=O)c3ccccc3N)cc2c1` [Example 1-36, 2-aminobenzoic acid 2-(5-isopropyl-1H-indole-2-carbonyl)hydrazide] cannot be ordered by IC50: over 100 nM for the first, over 100 nM for the second.

Going from `Nc1ccc(Cl)cc1C(=O)NNC(=O)c1cc2cc(Cl)ccc2[nH]1` [Example 1-57, 2-amino-5-chlorobenzoic acid 2-(5-chloro-1H-indole-2-carbonyl)hydrazide] to `Cc1ccc(C(=O)NNC(=O)c2cc3cc(Cl)ccc3[nH]2)c(N)c1` [Example 1-95, 2-amino-4-methylbenzoic acid 2-(5-chloro-1H-indole-2-carbonyl)hydrazide], the IC50 rises from 30 nM to 280 nM (9.3-fold). The first is the more potent here.

First: O=C(NNC(=O)c1cc(F)c(F)c(F)c1F)c1cc2cc(Cl)ccc2[nH]1 [Example 1-94, 2,3,4,5-tetrafluorobenzoic acid 2-(5-chloro-1H-indole-2-carbonyl)hydrazide]
Second: Nc1cc(F)c(F)cc1C(=O)NNC(=O)c1cc2cc(Cl)ccc2[nH]1 [Example 1-100, 2-amino-4,5-difluorobenzoic acid 2-(5-chloro-1H-indole-2-carbonyl)hydrazide]
The IC50 of the first is 2.2-fold higher: 520 nM for the first, 240 nM for the second. The second is the more potent here.

First: O=C(NNC(=O)c1cc2cc(Cl)ccc2[nH]1)c1ccoc1 [Example 1-84, furan-3-carboxylic acid 2-(5-chloro-1H-indole-2-carbonyl)hydrazide]
Second: Cn1cccc1C(=O)NNC(=O)c1cc2cc(Cl)ccc2[nH]1 [Example 1-87, 1-methyl-1H-pyrrole-2-carboxylic acid 2-(5-chloro-1H-indole-2-carbonyl)hydrazide]
The IC50 of the first is 2.8-fold lower: 20 nM for the first, 56 nM for the second. The first is the more potent here.

`O=C(NNC(=O)c1cc2cc(Cl)ccc2[nH]1)c1cccc(C(F)(F)F)c1` [Example 1-30, 3-trifluoromethylbenzoic acid 2-(5-chloro-1H-indole-2-carbonyl)hydrazide] and `CC(=O)Nc1cccc(C(=O)NNC(=O)c2cc3cc(Cl)ccc3[nH]2)c1` [Example 1-46, N-(3-(2-(5-chloro-1H-indole-2-carbonyl)hydrazinocarbonyl)phenyl)acetamide] are within 1.5-fold of each other in IC50: 240 nM for the first, 290 nM for the second.

Going from `N=C(NNC(=O)c1cc2cc(Cl)ccc2[nH]1)c1cnccn1` [Example 1-140, 5-chloro-1H-indole-2-carboxylic acid 2-(imino-(pyrazin-2-yl)-methyl)hydrazide] to `N=C(NNC(=O)c1cc2cc(Cl)ccc2[nH]1)c1ccco1` [Example 1-137, 5-chloro-1H-indole-2-carboxylic acid 2-((furan-2-yl)-imino-methyl)hydrazide], the IC50 rises from 180 nM to 330 nM (1.8-fold).

`O=C(NNC(=O)c1cc2cc([N+](=O)[O-])ccc2[nH]1)c1ccccc1` [Example 1-122, benzoic acid 2-(5-nitro-1H-indole-2-carbonyl)hydrazide] and `N#Cc1ccc(C(=O)NNC(=O)c2cc3cc(Cl)ccc3[nH]2)cc1` [Example 1-58, 4-cyanobenzoic acid 2-(5-chloro-1H-indole-2-carbonyl)hydrazide] cannot be ordered by IC50: over 100 nM for the first, over 100 nM for the second.

Going from `CN(C)c1ccccc1C(=O)NNC(=O)c1cc2cc(Cl)ccc2[nH]1` [Example 1-51, 2-(dimethylamino)benzoic acid 2-(5-chloro-1H-indole-2-carbonyl)hydrazide] to `O=C(NNC(=O)c1ccccc1-c1ccccc1)c1cc2cc(Cl)ccc2[nH]1` [Example 1-27, biphenyl-2-carboxylic acid 2-(5-chloro-1H-indole-2-carbonyl)hydrazide], the IC50 falls from 89 nM to 47 nM (1.9-fold). The second is the more potent here.

Compared with `O=C(O)COc1cccc(C(=O)NNC(=O)c2cc3cc(Cl)ccc3[nH]2)c1` [Example 1-70, 2-(3-(2-(5-chloro-1H-indole-2-carbonyl)hydrazinocarbonyl)phenoxy)acetic acid], `O=C(NNC(=O)c1cc2cc(Cl)ccc2[nH]1)Nc1cccc(F)c1` [Example 5-6, 5-chloro-1H-indole-2-carboxylic acid 2-((3-fluorophenyl)aminocarbonyl)hydrazide] is 3.1-fold lower in IC50: 150 nM for the first, 49 nM for the second.

First: CCCn1c(=O)n(NC(=O)c2cc3cc(Cl)ccc3[nH]2)c(=O)c2ccccc21 [Example 2-30, 5-chloro-1H-indole-2-carboxylic acid (1,2,3,4-tetrahydro-2,4-dioxo-1-propylquinazolin-3-yl)amide]
Second: O=C(Nn1c(=O)[nH]c2ccccc2c1=O)c1cc2ccc(Cl)cc2[nH]1 [Example 2-12, 6-chloro-1H-indole-2-carboxylic acid (1,2,3,4-tetrahydro-2,4-dioxoquinazolin-3-yl)amide]
The IC50 of the first is 5-fold lower: 88 nM for the first, 440 nM for the second. The first is the more potent here.

`O=C(Nc1ccccc1C(=O)NNC(=O)c1cc2cc(Cl)ccc2[nH]1)OC(CO)CO` [Example 1-75, 1,3-dihydroxy-2-propyl (2-(2-(5-chloro-1H-indole-2-carbonyl)hydrazinocarbonyl)phenyl)carbamate] and `O=C(NNC(=O)C1(c2ccccc2)CC1)c1cc2cc(Cl)ccc2[nH]1` [Example 5-12, 5-chloro-1H-indole-2-carboxylic acid 2-((1-phenylcyclopropane)carbonyl)hydrazide] are within 1.5-fold of each other in IC50: 250 nM for the first, 290 nM for the second.

`O=C(NN1C(=O)N[C@@H](Cc2ccccc2)C1=O)c1cc2cc(Cl)ccc2[nH]1` [Example 4-9, 5-chloro-1H-indole-2-carboxylic acid ((4S)-4-benzyl-2,5-dioxoimidazolidin-1-yl)amide] and `O=C(NN1C(=O)N[C@H](Cc2ccccc2)C1=O)c1cc2cc(Cl)ccc2[nH]1` [Example 4-10, 5-chloro-1H-indole-2-carboxylic acid ((4R)-4-benzyl-2,5-dioxoimidazolidin-1-yl)amide] cannot be ordered by IC50: over 100 nM for the first, over 100 nM for the second.

`O=C(NN1C(=O)CN(c2ccccc2)C1=S)c1cc2cc(Cl)ccc2[nH]1` [Example 4-3, N-(4-oxo-1-phenyl-2-thioxoimidazolidin-3-yl)-5-chloro-1H-indole-2-carboxamide] and `O=C(NN1CN(c2ccccc2)CC1=O)c1cc2cc(Cl)ccc2[nH]1` [Example 4-4, N-(1-oxo-4-phenylimidazolidin-2-yl)-5-chloro-1H-indole-2-carboxamide] cannot be ordered by IC50: over 100 nM for the first, over 100 nM for the second.

`CC(C)c1ccc2[nH]c(C(=O)NNC(=O)c3ccc(F)cc3N)cc2c1` [Example 1-37, 2-amino-4-fluorobenzoic acid 2-(5-isopropyl-1H-indole-2-carbonyl)hydrazide] and `Cc1ccc(C(=N)NNC(=O)c2cc3cc(Cl)ccc3[nH]2)n1C` [Example 6-27, 5-chloro-1H-indole-2-carboxylic acid 2-((1,2-dimethyl-1H-pyrrol-5-yl)-imino-methyl)hydrazide methanesulfonate] cannot be ordered by IC50: over 100 nM for the first, 170 nM for the second.

Molecule `O=C(NN1C(=O)CCN(c2ccc(Cl)cc2)C1=O)c1cc2cc(Cl)ccc2[nH]1` [Example 3-14, 5-chloro-1H-indole-2-carboxylic acid (1-(4-chlorophenyl)-2,4-dioxoperhydropyrimidin-3-yl)amide] has an IC50 of 120 nM.
